Reference: ChEMBL document CHEMBL1123205, “Synthesis and antihypertensive activity of a series of 4-amino-6,7-dimethoxyquinazoline derivatives” (1986)

What was measured:
Assay type in all cases: functional
Rattus norvegicus [1] = assay: Antihypertensive activity determined as percent fall in blood pressure after 4 hours in spontaneously hypertensive rats administered with 10 mg/kg, (po)
Rattus norvegicus [2] = assay: Antihypertensive activity determined as percent fall in blood pressure after 2 hr in spontaneously hypertensive rats administered with 10 mg/kg (po)
Rattus norvegicus [3] = assay: Antihypertensive activity determined as percent fall in blood pressure after 4 hours in spontaneously hypertensive rats administered with 3 mg/kg, (po)
Rattus norvegicus [4] = assay: Antihypertensive activity determined as percent fall in blood pressure after 2 hr in spontaneously hypertensive rats administered with 3 mg/kg (po)

Row | Compound | Activity (Rattus norvegicus [1]) [%] | Activity (Rattus norvegicus [2]) [%] | Activity (Rattus norvegicus [3]) [%] | Activity (Rattus norvegicus [4]) [%]
1 | COc1cc2nc(N(C)CCCNC(=O)C3Cc4ccccc4O3)nc(N)c2cc1OC.Cl (configuration not stated) | -19 | -22 |  | 
2 | COc1cc2nc(N(C)CCCNC(=O)c3cc4ccccc4o3)nc(N)c2cc1OC.Cl | 0 | 0 |  | 
3 | COc1cc2nc(N(C)CCN(C)C(=O)c3ccccc3)nc(N)c2cc1OC | 0 | 0 |  | 
4 | CCN(CCCN(C)C(=O)c1ccccc1)c1nc(N)c2cc(OC)c(OC)cc2n1.Cl | -12 | -16 |  | 
5 | COc1cc2nc(N(C)CCCN(C)C(=O)c3ccccc3)nc(N)c2cc1OC.Cl | -15 | -23 |  | 
6 | CCN(CCCN(CC)c1nc(N)c2cc(OC)c(OC)cc2n1)C(=O)c1ccco1.Cl | -11 | -16 |  | 
7 | COc1cc2nc(NCCCNC(=O)c3ccccc3)nc(N)c2cc1OC.Cl | -7 | -9 |  | 
8 | COc1cc2nc(N(C)CCCNC(=O)c3ccco3)nc(N)c2cc1OC.Cl | -17 | -20 |  | 
9 | COc1cc2nc(N(C)CCCNC(=O)c3ccccc3)nc(N)c2cc1OC.Cl | -23 | -31 |  | 
10 | COc1cc2nc(N(C)CCCN(C)C(=O)c3ccco3)nc(N)c2cc1OC.Cl | -20 | -24 |  | 
11 | COc1cc2nc(N(C)CCCN(C)C(=O)c3cccnc3)nc(N)c2cc1OC.Cl | -9 | -5 |  | 
12 | COc1cc2nc(N(C)CCCNC(=O)/C=C/c3ccccc3)nc(N)c2cc1OC.Cl | 3 | 0 |  | 
13 | COc1cc2nc(N(C)CCCNC(=O)C3CCOC3)nc(N)c2cc1OC.Cl (configuration not stated) | -10 | -24 |  | 
14 | COc1cc2nc(N(C)CCCN(C)C(=O)c3nnc(SC)o3)nc(N)c2cc1OC.Cl | -6 | -20 |  | 
15 | COc1cc2nc(N(C)CCCN(C)C(=O)C3CCCO3)nc(N)c2cc1OC.Cl (configuration not stated) | -7 | -14 |  | 
16 | COc1cc2nc(N(C)CCCNC(=O)C3CC3)nc(N)c2cc1OC.Cl | -12 | -19 |  | 
17 | COc1cccc(C(=O)N(C)CCCN(C)c2nc(N)c3cc(OC)c(OC)cc3n2)c1.Cl | 0 | -12 |  | 
18 | COc1cc2nc(N(C)CCCN(CC(C)C)C(=O)c3ccccc3)nc(N)c2cc1OC.Cl | 6 | 0 |  | 
19 | CCN(CCCN(CC)c1nc(N)c2cc(OC)c(OC)cc2n1)C(=O)c1ccccc1.Cl | -5 | -1 |  | 
20 | COc1cc2nc(NCCCN(C)C(=O)C3CCCO3)nc(N)c2cc1OC.Cl (configuration not stated) | -6 | -8 |  | 
21 | COc1cc2nc(N(C)CCCNC(=O)C3CCCC3)nc(N)c2cc1OC.Cl | -20 | -30 |  | 
22 | COc1cc2nc(N(C)CCCNC(=O)C3COc4ccccc4O3)nc(N)c2cc1OC.Cl (configuration not stated) | -6 | 2 |  | 
23 | COc1cc2nc(N(C)CCN(C)C(=O)c3ccco3)nc(N)c2cc1OC.Cl | 0 | 0 |  | 
24 | COc1cc2nc(N(C)CCCN(C)C(=O)c3cccc(C)c3)nc(N)c2cc1OC.Cl | 0 | -10 |  | 
25 | COc1cc(OC)cc(C(=O)N(C)CCCN(C)c2nc(N)c3cc(OC)c(OC)cc3n2)c1.Cl | -2 | -6 |  | 
26 | COc1cc2nc(N(C)CCCCN(C)C(=O)c3ccccc3)nc(N)c2cc1OC.Cl | -12 | -21 |  | 
27 | COc1cc2nc(N(C)CCCN(C)C(=O)c3cc(OC)c(OC)c(OC)c3)nc(N)c2cc1OC.Cl | -6 | -11 |  | 
28 | COc1cc2nc(N(C)CCCNC(=O)C3CCOCC3)nc(N)c2cc1OC | -7 | -27 |  | 
29 | COc1cc2nc(N(C)CCCNC(=O)C3CCCO3)nc(N)c2cc1OC.Cl (configuration not stated) [ALFUZOSIN HYDROCHLORIDE] | -24 | -34 |  | 
30 | COc1cc2nc(N3CCN(C(=O)c4ccco4)CC3)nc(N)c2cc1OC.Cl [PRAZOSIN HYDROCHLORIDE] | -35 | -37 | -25 | -30
